Data published in ChEMBL document CHEMBL4385640, “Synthesis, SAR study, and biological evaluation of novel 2,3-dihydro-1H-imidazo[1,2-a]benzimidazole derivatives as phosphodiesterase 10A inhibitors” (Bioorg Med Chem, 2019).
≈ marks a conversion by molar mass, not a printed value. Calls of active or inactive are those of the source. No cut-off for these calls is given here.

How the values were obtained:
[1] = biological target: cAMP and cAMP-inhibited cGMP 3',5'-cyclic phosphodiesterase 10A (Homo sapiens, UniProt Q9Y233); assay: Inhibition of human PDE10A using cAMP as substrate preincubated for 30 mins followed by substrate addition and measured after 60 mins by HTRF detection assay
LLC-PK1 = assay: Ratio of efflux ratio of LLC-PK1 cells expressing human MDR1 at 1 uM to efflux ratio of wild type LLC-PK1 cells at 1 uM; type: ADME, cell-based, Sus scrofa; conditions: pig, llc-pk1, 1 µM
[2] = Apparent permeability in wild type pig LLC-PK1 cells at 1 uM incubated for 3 hrs by […] LC-MS/MS analysis; type: ADME, cell-based, Sus scrofa
[3] = Intrinsic clearance in human liver microsomes by LC-MS/MS analysis; type: ADME, Microsome
CYP2C8 = biological target: T1, CYP2C8 (Homo sapiens, UniProt P10632); assay: Inhibition of CYP2C8 in human liver microsomes assessed as enzyme residual activity incubated for 30 mins by LC-MS/MS analysis relative to control; type: ADME; conditions: read-out: Activity
T1 sequence (P10632 whole entry): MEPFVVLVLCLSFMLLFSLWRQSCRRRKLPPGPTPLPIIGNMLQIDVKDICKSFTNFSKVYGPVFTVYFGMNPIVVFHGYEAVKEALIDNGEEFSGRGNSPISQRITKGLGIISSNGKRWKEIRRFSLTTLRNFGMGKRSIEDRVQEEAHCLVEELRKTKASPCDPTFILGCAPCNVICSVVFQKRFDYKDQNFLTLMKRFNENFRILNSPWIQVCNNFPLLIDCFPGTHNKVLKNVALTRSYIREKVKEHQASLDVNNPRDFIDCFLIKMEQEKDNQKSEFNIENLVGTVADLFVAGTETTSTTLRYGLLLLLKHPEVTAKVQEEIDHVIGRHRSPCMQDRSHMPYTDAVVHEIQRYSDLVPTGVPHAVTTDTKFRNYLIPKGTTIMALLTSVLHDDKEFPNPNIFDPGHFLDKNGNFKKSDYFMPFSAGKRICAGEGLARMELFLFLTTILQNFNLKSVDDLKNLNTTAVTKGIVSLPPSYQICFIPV

[4] = Drug uptake in mouse brain at 0.1 mg/kg, po measured after 1 hr by LC-MS/MS analysis; type: ADME, organism-based
CYP3A4 = CYP3A4 (Homo sapiens, UniProt P08684); assay: Inhibition of CYP3A4 in human liver microsomes assessed as enzyme residual activity incubated for 30 mins by LC-MS/MS analysis relative to control; type: ADME; conditions: read-out: Activity
CYP2C19 = CYP2C19 (Homo sapiens, UniProt P33261); assay: Inhibition of CYP2C19 in human liver microsomes assessed as enzyme residual activity incubated for 30 mins by LC-MS/MS analysis relative to control; type: ADME; conditions: read-out: Activity
Mus musculus [5] = assay: Antipsychotic activity in ICR mouse assessed as inhibition of Phencyclidine-induced hyperlocomotion pretreated orally followed by Phencyclidine injection and measured after 60 mins; type: functional, organism-based
CYP2D6 = CYP2D6 (Homo sapiens, UniProt P10635); assay: Inhibition of CYP2D6 in human liver microsomes assessed as enzyme residual activity incubated for 30 mins by LC-MS/MS analysis relative to control; type: ADME; conditions: read-out: Activity
[6] = Toxicity in ICR mouse assessed as induction of catalepsy up to 100 mg/kg, po treated for 60 mins and measured up to 120 secs by bar test; type: organism-based; conditions: in vivo
[7] = Intrinsic clearance in mouse liver microsomes by LC-MS/MS analysis; type: ADME, Microsome; conditions: read-out: CLH
Mus musculus [8] = assay: Effect on mean number of arm entries in ddY mouse at 0.03 to 0.3 mg/kg, po pretreated 40 mins before MK-801 dosing and measured after 20 mins by Y-maze test; type: organism-based; conditions: in vivo
[9] = Drug uptake in mouse plasma at 0.1 mg/kg, po measured after 1 hr by LC-MS/MS analysis; type: ADME, organism-based
[10] = Total brain to plasma partition coefficient, Kp in mouse at 0.1 mg/kg, po measured after 1 hr by LC-MS/MS analysis; type: ADME, organism-based
[11] = Lipophilicity, logD of the compound at pH 7.4; type: physicochemical; conditions: buffer
Mus musculus [12] = assay: Effect on mean number of arm entries in ddY mouse at 1 mg/kg, po pretreated 40 mins before MK-801 dosing and measured after 20 mins by Y-maze test; type: organism-based; conditions: in vivo
[13] = Solubility of the compound in pH 6.8 JP2 buffer; type: physicochemical
CYP1A2 = biological target: T2, CYP1A2 (Homo sapiens, UniProt P05177); assay: Inhibition of CYP1A2 in human liver microsomes assessed as enzyme residual activity incubated for 30 mins by LC-MS/MS analysis relative to control; type: ADME; conditions: read-out: Activity
T2 sequence (P05177 whole entry): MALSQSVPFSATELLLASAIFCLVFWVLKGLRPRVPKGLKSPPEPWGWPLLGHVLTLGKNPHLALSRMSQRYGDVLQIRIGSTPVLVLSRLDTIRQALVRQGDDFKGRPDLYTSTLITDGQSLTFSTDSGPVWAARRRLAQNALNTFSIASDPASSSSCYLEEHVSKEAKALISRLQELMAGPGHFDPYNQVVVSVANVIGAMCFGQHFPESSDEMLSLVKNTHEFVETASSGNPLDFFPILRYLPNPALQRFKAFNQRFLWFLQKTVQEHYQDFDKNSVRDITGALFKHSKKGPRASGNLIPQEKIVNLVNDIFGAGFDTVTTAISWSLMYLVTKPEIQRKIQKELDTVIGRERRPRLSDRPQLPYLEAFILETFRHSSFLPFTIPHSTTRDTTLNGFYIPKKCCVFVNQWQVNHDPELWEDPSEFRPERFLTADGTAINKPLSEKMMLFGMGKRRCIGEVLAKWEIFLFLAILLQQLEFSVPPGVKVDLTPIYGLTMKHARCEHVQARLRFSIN

CYP2C9 = CYP2C9 (Homo sapiens, UniProt P11712); assay: Inhibition of CYP2C9 in human liver microsomes assessed as enzyme residual activity incubated for 30 mins by LC-MS/MS analysis relative to control; type: ADME; conditions: read-out: Activity
Mus musculus [14] = assay: Cognition enhancement activity in ddY mouse assessed as suppression of MK-801-induced working memory deficit by measuring decrease in spontaneous alternation behavior at 0.1 to 0.3 mg/kg, po pretreated 40 mins before MK-801 dosing and measured after 20 mins by Y-maze test; type: functional, organism-based

Chain of cAMP and cAMP-inhibited cGMP 3',5'-cyclic phosphodiesterase 10A (Q9Y233 whole entry): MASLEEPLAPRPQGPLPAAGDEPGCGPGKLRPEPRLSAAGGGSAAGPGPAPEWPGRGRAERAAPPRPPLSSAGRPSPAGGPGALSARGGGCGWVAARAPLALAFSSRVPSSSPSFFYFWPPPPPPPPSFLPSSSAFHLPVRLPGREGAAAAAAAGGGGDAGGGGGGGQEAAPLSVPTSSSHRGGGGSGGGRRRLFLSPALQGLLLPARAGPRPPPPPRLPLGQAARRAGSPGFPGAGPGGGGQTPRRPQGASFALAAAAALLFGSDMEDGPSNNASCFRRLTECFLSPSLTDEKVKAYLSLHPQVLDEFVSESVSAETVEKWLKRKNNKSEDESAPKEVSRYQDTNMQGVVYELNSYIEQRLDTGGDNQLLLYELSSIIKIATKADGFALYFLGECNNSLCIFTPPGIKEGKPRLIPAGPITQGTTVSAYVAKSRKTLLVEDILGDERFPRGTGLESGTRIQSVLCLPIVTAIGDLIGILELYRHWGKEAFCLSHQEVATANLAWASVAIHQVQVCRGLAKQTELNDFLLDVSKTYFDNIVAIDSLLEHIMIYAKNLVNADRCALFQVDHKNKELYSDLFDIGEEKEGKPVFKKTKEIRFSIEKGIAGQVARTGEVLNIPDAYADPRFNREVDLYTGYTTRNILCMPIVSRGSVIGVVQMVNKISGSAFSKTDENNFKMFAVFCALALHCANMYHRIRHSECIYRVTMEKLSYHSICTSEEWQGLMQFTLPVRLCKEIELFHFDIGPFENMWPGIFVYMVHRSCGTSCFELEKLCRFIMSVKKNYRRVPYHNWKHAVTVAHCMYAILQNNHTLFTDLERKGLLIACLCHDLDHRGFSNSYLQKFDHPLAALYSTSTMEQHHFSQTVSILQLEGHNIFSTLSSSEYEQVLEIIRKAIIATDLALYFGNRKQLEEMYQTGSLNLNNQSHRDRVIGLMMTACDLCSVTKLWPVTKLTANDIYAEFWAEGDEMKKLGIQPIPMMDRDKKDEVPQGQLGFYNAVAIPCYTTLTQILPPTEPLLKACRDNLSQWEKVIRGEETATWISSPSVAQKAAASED
Chain of CYP2D6 (P10635 whole entry): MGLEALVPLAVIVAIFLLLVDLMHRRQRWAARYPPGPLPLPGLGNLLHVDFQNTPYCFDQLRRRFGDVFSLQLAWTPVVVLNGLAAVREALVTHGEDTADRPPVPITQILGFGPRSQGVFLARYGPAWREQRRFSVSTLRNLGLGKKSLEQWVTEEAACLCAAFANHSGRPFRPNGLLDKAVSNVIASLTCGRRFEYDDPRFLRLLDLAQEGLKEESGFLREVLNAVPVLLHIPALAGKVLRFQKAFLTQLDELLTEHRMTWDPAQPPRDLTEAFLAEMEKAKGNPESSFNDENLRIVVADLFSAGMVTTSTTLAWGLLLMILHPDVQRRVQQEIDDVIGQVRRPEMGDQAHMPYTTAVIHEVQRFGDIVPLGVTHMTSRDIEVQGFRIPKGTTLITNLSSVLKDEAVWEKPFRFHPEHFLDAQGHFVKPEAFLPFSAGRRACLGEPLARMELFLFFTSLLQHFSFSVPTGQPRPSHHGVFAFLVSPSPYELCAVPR
Chain of CYP2C19 (P33261 whole entry): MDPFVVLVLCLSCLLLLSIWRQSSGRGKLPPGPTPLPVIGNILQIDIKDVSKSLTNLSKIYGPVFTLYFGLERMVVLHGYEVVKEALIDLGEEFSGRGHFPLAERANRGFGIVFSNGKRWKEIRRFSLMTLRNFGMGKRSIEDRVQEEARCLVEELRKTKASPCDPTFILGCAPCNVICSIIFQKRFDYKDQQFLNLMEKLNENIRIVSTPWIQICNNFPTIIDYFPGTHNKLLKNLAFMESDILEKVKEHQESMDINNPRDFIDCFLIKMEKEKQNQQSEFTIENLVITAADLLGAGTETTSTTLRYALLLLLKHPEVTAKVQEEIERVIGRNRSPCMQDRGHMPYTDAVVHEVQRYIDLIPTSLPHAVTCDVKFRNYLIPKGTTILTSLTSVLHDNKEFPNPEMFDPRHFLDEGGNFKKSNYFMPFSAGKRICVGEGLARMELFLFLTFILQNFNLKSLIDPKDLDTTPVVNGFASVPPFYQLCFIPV
Chain of CYP2C9 (P11712 whole entry): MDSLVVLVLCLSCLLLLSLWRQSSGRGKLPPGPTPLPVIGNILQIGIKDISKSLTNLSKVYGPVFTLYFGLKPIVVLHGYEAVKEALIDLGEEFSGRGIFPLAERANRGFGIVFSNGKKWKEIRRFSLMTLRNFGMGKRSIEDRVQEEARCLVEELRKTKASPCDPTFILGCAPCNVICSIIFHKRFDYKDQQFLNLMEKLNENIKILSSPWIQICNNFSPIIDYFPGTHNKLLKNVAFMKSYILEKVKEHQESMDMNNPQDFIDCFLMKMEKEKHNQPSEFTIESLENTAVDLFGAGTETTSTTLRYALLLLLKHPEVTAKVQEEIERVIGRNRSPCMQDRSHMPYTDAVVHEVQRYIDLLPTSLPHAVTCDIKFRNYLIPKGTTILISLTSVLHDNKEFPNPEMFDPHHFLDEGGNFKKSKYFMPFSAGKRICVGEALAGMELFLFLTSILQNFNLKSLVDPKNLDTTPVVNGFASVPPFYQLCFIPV
Chain of CYP3A4 (P08684 whole entry): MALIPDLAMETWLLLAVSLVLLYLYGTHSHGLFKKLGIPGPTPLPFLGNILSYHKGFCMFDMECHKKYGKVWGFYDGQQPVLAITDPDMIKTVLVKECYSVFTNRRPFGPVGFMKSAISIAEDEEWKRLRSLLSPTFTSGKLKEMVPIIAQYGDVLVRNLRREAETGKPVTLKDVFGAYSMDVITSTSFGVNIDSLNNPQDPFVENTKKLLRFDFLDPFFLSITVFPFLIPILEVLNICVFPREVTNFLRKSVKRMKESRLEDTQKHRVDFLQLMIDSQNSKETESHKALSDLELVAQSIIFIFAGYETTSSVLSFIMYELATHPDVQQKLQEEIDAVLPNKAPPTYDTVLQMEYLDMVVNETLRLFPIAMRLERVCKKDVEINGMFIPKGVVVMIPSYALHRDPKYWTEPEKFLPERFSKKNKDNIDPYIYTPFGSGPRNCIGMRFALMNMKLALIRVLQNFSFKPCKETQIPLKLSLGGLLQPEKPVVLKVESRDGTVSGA

Row | Structure (SMILES) | IC50 [1] [nM] | Ratio (LLC-PK1) | also measured
1 | Cc1cc(C)n2nc(CCNc3cnc4ccccc4n3)nc2n1 | 1220 | – | –
2 | Cc1cc(C)n2nc(CC(=O)N3CCn4c3nc3c(C)cccc34)nc2n1 | > 10000 | – | –
3 | Cc1cc(C)n2cc(CC(=O)N3CCn4c3nc3ccccc34)nc2n1 | 275 | 1 | –
4 | Cc1cc(C)n2nc(CC(=O)N3CC(C)n4c3nc3ccccc34)nc2n1 (stereo unspecified) | 292 | – | –
5 | Cc1cc(C)n2nc(CC(=O)N3CCn4c3nc3ccccc34)nc2c1 | 135 | 1.2 | –
6 | Cc1cc(C)n2nc(CC(=O)N3c4nc5ccccc5n4C[C@H]3c3ccccc3)nc2n1 | 1920 | – | –
7 | Cc1cc(C)n2nc(CCNc3ccc4ccccc4n3)nc2n1 | 294 | – | –
8 | Cc1cc(C)n2nc(CCN3CCn4c3nc3ccccc34)nc2n1 | 138 | 3.6 | Papp at 3 h, 1 µM [2]: 19.2 ×10⁻⁶ cm/s
9 | Cc1ccc2nc3n(c2c1)CCN3C(=O)Cc1nc2nc(C)cc(C)n2n1 | 416 | – | –
10 | Cc1cc(C)n2nc(CC(=O)N3CCn4c3nc3cccc(C)c34)nc2n1 | 279 | – | –
11 | Cc1cc(C)n2nc(CCNc3nc4ccccc4n3C)nc2n1 | 88 | – | –
12 | Cc1cc(C)n2nc(CCNc3nc4ccccc4[nH]3)nc2n1 | 105 | – | –
13 | Cc1ccc2c(c1)nc1n2CCN1C(=O)Cc1nc2nc(C)cc(C)n2n1 | 441 | – | –
14 | Cc1cc(C)n2nc(CCc3ccn4nc5ccccc5c4n3)nc2n1 | 78 | – | –
15 | Cc1cc(C)n2nc(CCNc3ncc4ccccc4n3)nc2n1 | 2080 | – | –
16 | Cc1cc(C)n2nc(CC(=O)N3CCCn4c3nc3ccccc34)nc2n1 | 1480 | – | –

The next molecules have a lower IC50 [1] than those just listed; values first:

Row | IC50 [1] [nM] | Ratio (LLC-PK1) | Structure (SMILES) | also measured
17 | 74 | 2.1 | Cc1cc(C)n2nc(CC(=O)N3c4nc5ccccc5n4CC3(C)C)nc2n1 | –
18 | 75 | 3.8 | Cc1cc(C)n2nc(CC(=O)N3c4nc5ccccc5n4C[C@@H]3c3ccccc3)nc2n1 | –
19 | 8.4 | 1.2 | Cc1ncc(C)n2nc(CC(=O)N3c4nc5ccccc5n4C[C@@H]3C)nc12 | CLH [3]: Stable; activity at 0.5 h (CYP2C8): 99%; concentration at 1 h ([4]; brain, read-out: Drug uptake): 2.2 ng/g; Papp at 3 h, 1 µM [2]: 27.5 ×10⁻⁶ cm/s; activity at 0.5 h (CYP3A4): 90%; activity at 0.5 h (CYP2C19): 90%; Activity (Mus musculus [5]): Dose-dependent effect; activity at 0.5 h (CYP2D6): 102%; Activity [6]: Non-Toxic; CLint scaled [7]: 175 mL/min/kg; Activity (Mus musculus [8]): Non-Toxic; concentration at 1 h [9]: 0.91 ng/mL; Kp at 1 h [10]: 2.3; logD [11]: 2; Activity (Mus musculus [12]): Toxic; solubility [13]: 100 µM (≈ 36.1 µg/mL); activity at 0.5 h (CYP1A2): 98%; activity at 0.5 h (CYP2C9): 96%; Activity (Mus musculus [14]): Active
20 | 28 | 2.4 | Cc1cc(C)n2nc(CC(=O)N3c4nc5ccccc5n4C[C@@H]3C)nc2n1 | –
21 | 69 | 2.4 | Cc1cc(C)n2nc(CC(=O)N3c4nc5ccccc5n4CC3C)nc2n1 (racemic) | –
22 | 2 | 1.8 | Cc1cc(C)n2nc(CCc3cc(O)n4nc5ccccc5c4n3)nc2n1 | Drug uptake ([4]; in vivo, 1 h): Not Active; Papp at 3 h, 1 µM [2]: 3.2 ×10⁻⁶ cm/s; concentration at 1 h [9]: 0.59 ng/mL; logD [11]: 0.3
23 | 44 | 1.3 | Cc1ncc(C)n2nc(CC(=O)N3CCn4c3nc3ccccc34)nc12 | –
24 | 52 | 2.3 | Cc1cc(C)n2nc(CC(=O)N3CCn4c3nc3ccccc34)nc2n1 | Papp at 3 h, 1 µM [2]: 16.8 ×10⁻⁶ cm/s
25 | 2.9 | – | Cc1cc(C)n2nc(CCc3cc(O)n4nc5ncccc5c4n3)nc2n1 | –
